Source: ChEMBL document CHEMBL1201862, “PubChem BioAssay data set” (2004)
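48-hour exposure; five concentrations; linearly interpolated endpoints. Abbreviation: GI50, concentration required for 50% inhibition of growth.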 Activity calls are given as the source filed them. Cut-off read from the data, not from the text of the source: active = GI50 up to about 1.1 µM and inactive = higher.

Columns and labels:
Experiment in all cases: growth of human tumour cells (NCI), 48 h
SNB-19 = tested on: SNB-19
UO-31 = tested on: UO-31
K562 = tested on: K562
Hs-578T = tested on: Hs-578T
SK-MEL-5 = tested on: SK-MEL-5
SK-MEL-2 = tested on: SK-MEL-2
PC-3 = tested on: PC-3
MDA-MB-231 = tested on: MDA-MB-231
SF-539 = tested on: SF-539
HL-60 = tested on: HL-60
SNB-75 = tested on: SNB-75
MCF7 = tested on: MCF7
MOLT-4 = tested on: MOLT-4
HCC 2998 = tested on: HCC 2998
DU-145 = tested on: DU-145
RXF 393 = tested on: RXF 393
NCI-H460 = tested on: NCI-H460
CAKI-1 = tested on: CAKI-1
SK-MEL-28 = tested on: SK-MEL-28
NCI/ADR-RES = tested on: NCI/ADR-RES

CCN(CC)C(=S)SC1CCOP(=O)(N(CCCl)CCCl)N1C (stereo not given)
GI50 (SNB-19): > 92.9 µM (inactive)
GI50 (UO-31): 67.8 µM (inactive)
GI50 (K562): 0.399 µM (active)
GI50 (Hs-578T): > 100 µM (inactive)
GI50 (SK-MEL-5): 2.96 µM (inactive)
GI50 (SK-MEL-2): 20.5 µM (inactive)
GI50 (PC-3): > 100 µM (inactive)
GI50 (MDA-MB-231): > 100 µM (inactive)
GI50 (SF-539): 33.4 µM (inactive)
GI50 (HL-60): 0.509 µM (active)
GI50 (SNB-75): > 55.1 µM (inactive)
GI50 (MCF7): 69.3 µM (inactive)
GI50 (MOLT-4): 0.439 µM (active)
GI50 (HCC 2998): 33.4 µM (inactive)
GI50 (DU-145): > 100 µM (inactive)
GI50 (RXF 393): 29.9 µM (inactive)
GI50 (NCI-H460): 1.02 µM (active)
GI50 (CAKI-1): 45.6 µM (inactive)
GI50 (SK-MEL-28): 26.9 µM (inactive)
GI50 (NCI/ADR-RES): > 100 µM (inactive)

CCOC(=O)C(Cc1ccc(N(CCCl)CCCl)cc1)NC(=O)CCCN1C(=O)CN=C(c2ccccc2)c2cc(Cl)ccc21 (stereo not given)
GI50 (SNB-19): > 100 µM (inactive)
GI50 (UO-31): 13.8 µM (inactive)
GI50 (K562): 6.32 µM (inactive)
GI50 (Hs-578T): 6.67 µM (inactive)
GI50 (SK-MEL-5): 12.4 µM (inactive)
GI50 (SK-MEL-2): 14.7 µM (inactive)
GI50 (PC-3): 11.7 µM (inactive)
GI50 (MDA-MB-231): 22.1 µM (inactive)
GI50 (SF-539): 6.37 µM (inactive)
GI50 (HL-60): 2.21 µM (inactive)
GI50 (SNB-75): 15.8 µM (inactive)
GI50 (MCF7): 8.53 µM (inactive)
GI50 (MOLT-4): 2.44 µM (inactive)
GI50 (HCC 2998): 12.4 µM (inactive)
GI50 (DU-145): 14.9 µM (inactive)
GI50 (RXF 393): 3.25 µM (inactive)
GI50 (NCI-H460): 5.35 µM (inactive)
GI50 (CAKI-1): 15.2 µM (inactive)
GI50 (SK-MEL-28): 3.03 µM (inactive)
GI50 (NCI/ADR-RES): 22 µM (inactive)

O=C(O)c1cc(/N=N/c2ccc([As](=O)(O)O)cc2)ccc1O
GI50 (SNB-19): > 100 µM (inactive)
GI50 (UO-31): > 100 µM (inactive)
GI50 (K562): > 100 µM (inactive)
GI50 (Hs-578T): > 100 µM (inactive)
GI50 (SK-MEL-5): > 100 µM (inactive)
GI50 (SK-MEL-2): > 100 µM (inactive)
GI50 (PC-3): > 100 µM (inactive)
GI50 (MDA-MB-231): > 100 µM (inactive)
GI50 (SF-539): > 100 µM (inactive)
GI50 (HL-60): > 100 µM (inactive)
GI50 (SNB-75): > 100 µM (inactive)
GI50 (MCF7): > 100 µM (inactive)
GI50 (MOLT-4): > 100 µM (inactive)
GI50 (HCC 2998): > 100 µM (inactive)
GI50 (DU-145): > 100 µM (inactive)
GI50 (RXF 393): > 100 µM (inactive)
GI50 (NCI-H460): > 100 µM (inactive)
GI50 (CAKI-1): > 100 µM (inactive)
GI50 (SK-MEL-28): > 100 µM (inactive)
GI50 (NCI/ADR-RES): > 100 µM (inactive)
